According to patent publication US10857170B1, “Molecules, compositions and methods for modulation of SIRT6” (SirTLab Corporation, priority 2015, dated 2020):

Target: T1, Human recombinant SIRT6 (Homo sapiens, UniProt Q8N6T7)
T1 construct: six-histidine (His6); made in house; host or cells: Escherichia coli BL21
Test: SIRT6 enzymatic activity assay (fluorogenic de-myristoylation of histone H3 peptide-AMC, trypsin-coupled)
Format: biochemical
Conditions: for % activity 20 uM: compound 20 uM; for % activity 20 uM / % activity 100 uM / % activity Max. conc. 100 uM: percentage of signal increase relative to control wells; for % activity 100 uM / % activity Max. conc. 100 uM: compound 100 uM
Protocol: Human recombinant SIRT6 (sequence identifier: CAG33481.1; GI:4814651) was expressed in large scale in Escherichia coli strain BL21 as a six-histidine-tagged protein, after transformation of the expression plasmid pET28-SIRT6. The SIRT6 enzyme was purified from the bacteria culture broth in a two-step strategy. The first purification step was carried out by cation exchange chromatography on a HiTrap CM-Sepharose column (GE Healthcare) using an FPLC system. The second purification step was performed by immobilized metal ion affinity chromatography (IMAC) using a cobalt affinity column (Clontech).
The enzymatic activity assay is carried out in 96 or 384-well microplates using the purified recombinant SIRT6 and a fluorophore-labeled peptide substrate: 7-amino-4-methylcoumarin (AMC) that is quenched through conjugation to the C-terminal end of a Lysin-myristoylated histone H3 peptide. The activity assay procedure requires two steps, both performed in the same microplate. In the first step, the substrate is incubated with the purified SIRT6 protein along with the co-substrate nicotinamide adenine dinucleotide (NAD+). Upon de-myristoylation, the liberated ε-amino group of the lysine becomes a trypsin substrate. Treatment with trypsin in the second step releases the fluorophore resulting in an increase in fluorescence. Fluorescence intensity is measured using a fluorescent plate reader (excitation and emission at 370 nm and 450 nm, respectively). The fluorescence signal is directly proportional to SIRT6 enzymatic activity.
In the primary screening, compounds from a library (ChemDiv Inc.) were tested at a single concentration of 20 micromolar for their potential to modulate SIRT6 enzymatic activity. The assay was carried out in 384-well black well plates and all liquid handling was done using a robotic liquid handler. Purified recombinant SIRT6 (1 micromolar) was pre-incubated with each compound (or DMSO in control wells) for 15 minutes at room temperature. The first stage of the assay was initiated by adding a ‘substrate solution’ containing the myristoylated histone H3 peptide and NAD+(for final concentrations of 25 micromolar and 20 micromolar, respectively). After one hour incubation at 37° C., a Trypsin solution (6 mg/mL) was added for 30 minutes at room temperature. Fluorescence intensity was measured using a fluorescent plate reader (Tecan) with excitation at 370 nm and emission at 450 nm. The effect of each tested compound was evaluated by the change in the fluorescence intensity compared to control wells. […] To validate the primary screening results, each of the primary “hits” was re-tested, first at concentration of 20 micromolar in duplicates and later at a serial dilution ranging from 100 to 0.2 micromolar in triplicates.

T1 sequence (Q8N6T7 whole entry): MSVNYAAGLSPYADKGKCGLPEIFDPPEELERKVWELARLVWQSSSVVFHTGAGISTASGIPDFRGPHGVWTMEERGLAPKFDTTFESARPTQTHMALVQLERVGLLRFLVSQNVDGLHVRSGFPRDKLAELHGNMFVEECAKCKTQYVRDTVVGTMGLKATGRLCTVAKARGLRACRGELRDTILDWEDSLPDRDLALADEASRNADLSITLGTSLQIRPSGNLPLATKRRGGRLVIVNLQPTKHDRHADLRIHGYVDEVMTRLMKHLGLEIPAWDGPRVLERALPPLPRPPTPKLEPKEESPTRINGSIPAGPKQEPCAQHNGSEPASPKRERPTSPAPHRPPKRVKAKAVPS

Row | Structure (SMILES) | % activity 20 uM (Table 2) [%] | % activity 100 uM (Table 2) [%] | % activity 20 uM (Table 1) [%] | % activity Max. conc. 100 uM (Table 1) [%] | % activity (20 micromolar only) (Table 3, compound 20 micromolar) [%]
1 | Cc1ccccc1CSc1ncc(Sc2ccccc2)c(C(=O)NCc2ccccc2)n1 [compound 23] | 55 | 65 | – | – | –
2 | CCc1nnc(NC(=O)CSc2nc(N)nc(SC)c2C#N)s1 [compound 8] | 25 | 25 | – | – | –
3 | C=C(Oc1ccc2cnccc2c1)C1=C(N)c2ccccc2C1 [compound 35] | 154 | 324 | – | – | –
4 | C=C(CC)Nc1ccc(-c2cc(C(=O)NCCCN3CCCCCC3)c3ccccc3n2)cc1 [compound 40] | 62 | 92 | – | – | –
5 | Cc1ccc(NC(=O)c2nnc(-c3ccc(NC(=O)c4cccs4)cc3)s2)cc1 [compound 31] | 29 | 16 | – | – | –
6 | CCCC1(CO)CCCN1C(=O)c1ccc2cc[nH]c2c1 (stereo not shown) [compound 56] | 30 | 53 | – | – | –
7 | C=C(CCOc1ccccc1)N(CCCN(C)C)C1=Nc2c(C)cccc2C1 [A] | – | – | 263 | 255 | –
8 | C=S(=C)(c1cc(Cl)ccc1Cl)n1c(/C=C/c2ccc(SC)cc2)nc2ccccc21 [compound 21] | 38 | 36 | – | – | –
9 | C=C1N(C)C(=O)c2c(nc3n2CC(c2ccc(Br)cc2)=NN3)N1C [compound 11] | 41 | 99 | – | – | –
10 | C=C(NCCC)c1ccc(-c2ccc(N3CCCCC3)nc2)cc1 [compound 47] | 63 | 50 | – | – | –
11 | C=C1Oc2ccc(C)cc2-c2oc(NCCOC)c(-c3ccc(OCC)cc3)c21 [compound 29] | 82 | 226 | – | – | –
12 | Cc1noc(-c2cccc(OC3CN(C(=O)c4cccc5[nH]ccc45)C3)c2)n1 [compound 58] | 38 | 47 | – | – | –
13 | C=C(c1ccc(-c2nc3ccccc3n(CC(C)C)c2=O)cc1)N1CCN(c2ccccc2)CC1 [compound 46] | 51 | 56 | – | – | –
14 | C=S(=O)(C1=CC=C(c2ccc(N3CCCCC3)nn2)C1)N1CCCC(C(=O)OCC)C1 (stereo not shown) [compound 38] | 52 | 52 | – | – | –
15 | O=c1cc(O)c2sc3nc4c(cc3c2[nH]1)CCCCC4 [compound 15] | 37 | 75 | – | – | –
16 | C=C(OC(C)CC)C1=C(C)NC2=C(C(=C)C(C(=C)OC)C(C)C2)C1c1ccc(N(CC)CC)cc1 (stereo not shown) [compound 19] | 37 | 61 | – | – | –
17 | Cc1nc(-c2cccc(F)c2)c(N)c(N(C)C2CCN(C)CC2)n1 [compound 61] | 50 | 210 | – | – | –
18 | Cc1ccc(Nc2nc(C)c(C(=O)Nc3cccc(C(C)C)c3)s2)cc1 [compound 54] | 31 | 11 | – | – | –
19 | CC1=NCC(c2ccc(O)cc2O)=C1c1ccc(Cl)cc1 [compound 18] | 53 | 94 | – | – | –
20 | O=C(NCc1cccc(Cl)c1)c1noc2c1CSc1ccccc1-2 [compound 27] | 59 | 137 | – | – | –
21 | CC(C)(C)c1ccc(C(=O)Nc2ccc3nnc(C4CCC4)n3c2)cc1 [compound 51] | 23 | 87 | – | – | –
22 | COCCNc1oc2c(c1-c1ccc(C)cc1)c(=O)oc1c(C)cccc12 [compound 30] | 149 | 111 | – | – | –
23 | COc1ccc(-c2csc3c(NN)ncnc23)cc1 [compound 20] | 78 | 22 | – | – | –

Row | Structure (SMILES) | % activity 20 uM (Table 2) [%] | % activity 100 uM (Table 2) [%] | % activity 20 uM (Table 1) [%] | % activity Max. conc. 100 uM (Table 1) [%] | % activity (20 micromolar only) (Table 3, compound 20 micromolar) [%]
24 | C=C(Nc1ccc(CCC)cc1)C1=C(C)c2c(nc(C)nc2N(C)c2ccc(C(C)C)cc2)C1 [compound 39] | 32 | 54 | – | – | –
25 | Cc1cc(NC(=O)CSc2nnc(-c3sc4ncccc4c3N)n2C)ccc1Cl [compound 24] | 77 | 47 | – | – | –
26 | O=C(Nc1ccc2nnc(C3CCC3)n2c1)C1CC1 [compound 52] | 69 | 142 | – | – | –
27 | C=C1Cc2cc(C)cc(CC(=O)[C@@H](NS(=C)(=C)c3ccc(C)cc3)[C@H](C)CC)c2C2=C1CCC2 [compound 62] | 28 | 113 | – | – | –
28 | CCC(=O)Nc1ccc(-c2cc(C(=O)NCCCN3CCCCC3C)c3ccccc3n2)cc1 (stereo not shown) [compound 41] | 40 | 110 | – | – | –
29 | C=C1Nc2nc(OC(C)=O)c(C)c(C)c2S1 [compound 16] | 40 | 197 | – | – | –
30 | O=C(c1ccc(-c2ccc(N3CCCCC3)nc2)cc1)N1CCCC1 [compound 49] | 93 | 75 | – | – | –
31 | Cc1ccnc(NC(c2ccc(C)cc2C)c2ccc3cccnc3c2O)c1 (stereo not shown) [compound 6] | 30 | 28 | – | – | –
32 | C=C(NCCN1CCN(C)CC1)c1cc(-c2ccc(NC(C)=O)cc2)nc2ccc(C)cc12 [compound 43] | 96 | 119 | – | – | –
33 | C=C(Cc1ccc2c(c1)C(C)=CC(C)(C)N2)Cc1cccc2ccccc12 [compound 4] | 29 | 56 | – | – | –
34 | C=C(CN1C(=C)C(c2nc(-c3ccccc3)no2)=C(C)C=C1C)NC1CCCCC1 [compound 33] | 53 | 221 | – | – | –
35 | C=C(CC)Nc1ccc(-c2cc(C(=O)NCCCN3CCCC(C)C3)c3ccccc3n2)cc1 (stereo not shown) [compound 42] | 61 | 87 | – | – | –
36 | O=C(Nc1ccc2nncn2c1)c1cccc(Cl)c1 [compound 50] | 30 | 51 | – | – | –
37 | Cc1nc2sc(-c3nc4ccccc4[nH]3)c(N)c2c(C)c1Cl [compound 12] | 36 | 59 | – | – | –
38 | CCN1CCCC1CNC(=O)C1CCN(c2cc(C)nc3c(-c4ccc(Cl)cc4)c(C)nn23)CC1 (stereo not shown) [compound 22] | 32 | 29 | – | – | –
39 | C=C(c1ccc(-c2ccc(N3CCCCC3)nc2)cc1)N(C)C [compound 48] | 40 | 54 | – | – | –
40 | Cc1nc(-c2cccc(C(F)(F)F)c2)c(N)c(N(C)C2CCN(C)CC2)n1 [compound 60] | 52 | 255 | – | – | –
41 | CCc1nc(-c2ccccc2)c2cc(Cl)ccc2n1 [compound 1] | 88 | 428 | – | – | –
42 | C=C1Oc2cc(C[C@@H]3C[C@H](CO)[C@H](O)[C@H](C)[C@H]3O)ccc2C2=C1CCCC2 [C] | – | – | 70 | 195 | –
43 | N#Cc1cccc(-c2cn3c(n2)N(C(=O)c2ccncc2)CCC3)c1 [compound 57] | 37 | 45 | – | – | –
44 | CC1=CC(C)(C)Nc2ccc(OC(=O)c3cccs3)cc21 [compound 5] | 39 | 54 | – | – | –
45 | O=C(NCc1ccc2c(c1)CCC2)c1ccc(NC(=O)C2CC2)cc1N1CCCCCC1 [compound 63] | – | – | – | – | 38
46 | C=C(CS)Nc1ccc(CCCCC)cc1 [compound 9] | 22 | 48 | – | – | –
